Laboratory results taken from PMC7471840, “Autoantigens PLA2R and THSD7A in membranous nephropathy share a common epitope motif in the N-terminal domain” (Journal of Autoimmunity, 2020).

Tests used:
[1] = test system: affinity purified anti-T28mer (THSD7A autoantibodies); assay: BLI of affinity purified anti-T28mer; assay type: binding, human; conditions: immobilized peptide, antibodies from anti-THSD7A sera eluted from T28mer beads, normalized to blank beads
Procedure: (§1) 2 mg of MyOne™ carboxylic acid dynabeads per condition (Invitrogen, UK) were activated using 18.75 mg/ml EDC (N-3-dimethylaminopropyl- N′-ethylcarbodiimide hydrochloride, Sigma-Aldrich). 800 μg/ml of recombinant PLA2R fragment (NC3) and peptides (P28mer, T28mer or T28mer scrambled peptide) diluted in 15 mM MES buffer pH 6 were covalently immobilized overnight at 4 °C. The conditioned beads were then deactivated using 1 M ethanolamine (Bio-Rad) for 1 h. Pooled anti-THSD7A positive MN patient sera were diluted 1:50 in PBS-T and incubated (overnight at 4 °C with agitation) with 1 mg of either blank immobilized, T28mer immobilized or T28mer scrambled peptide immobilized magnetic beads. Pooled anti-PLA2R positive MN patient sera were similarly diluted and incubated with blank immobilized, PLA2R antigen immobilized or P28mer immobilized magnetic beads. Magnetic beads from all conditions were then precipitated, the supernatants removed, and washed three times in PBS-T. Bound antibodies were eluted with 0.1 M glycine pH 2.2 and the eluates from each condition were neutralized using 1 M TrisHCl pH 8. The affinity-purified eluate from each condition was then evaluated for binding to the P28mer and T28mer by BLI. The BLI analysis was executed as stated in section 2.9.1.1. with modification of the running buffer. […]

anti-PLA2R positive sera = assay: Slot blotting with anti-PLA2R positive sera; assay type: binding, human; conditions: non-denaturing; 1 μg protein/peptide; sera 1:100; Fig. 2D
Procedure: (§2) PLA2R, CysR domain, THSD7A (R&D Systems) and TSR1 protein samples (1 μg per lane) were resolved using 4–12% BisTris gradient gels with the MES buffer system, transferred to nitrocellulose membranes and blotted using patient sera (1:100 dilution) followed by incubation with Alexa Fluor® 680-AffiniPure Goat Anti-Human IgG, Fcγ Fragment Specific (min X Bov,Hrs,Ms Sr Prot) (1:10,000 dilution; Jackson Labs). Proteins were also analyzed using Moab 20-2-6, a monoclonal anti-PLA2R mouse antibody raised against a PLA2R fragment (see 2.4.1 for further details) at dilution 1:5000. Protein bands were visualized using an Odyssey Imaging System (LI-COR) at 700 nm and the intensity settings were kept constant for all blots allowing comparison. For slot blotting, 1 μg of proteins or peptides (P28mer aa38–65 and T28mer aa75-102 synthesized by ProImmune Ltd, Oxford, UK) were blotted directly onto nitrocellulose membrane and vacuum applied. For the reducing condition, samples were diluted in 10 mM Tris pH 8 then reduced and alkylated by sequential incubation with 50 mM DTT for 1 h at 37 °C and then with 125 mM iodoacetamide for 20 min in the dark. The reduced samples along with unreduced were blotted as described above.

[2] = test system: affinity purified anti-P28mer (PLA2R autoantibodies); assay: BLI of affinity purified anti-P28mer; assay type: binding, human; conditions: immobilized peptide, antibodies eluted from P28mer beads, normalized to blank beads
Procedure: as §1

Moab 20-2-6 [3] = assay: SPR kinetics of Moab 20-2-6 on immobilized peptides; assay type: binding, mouse; conditions: ProteOn XPR36, peptide immobilized on GLC chip, Moab 20-2-6 at 25-5 nM, Langmuir 1:1 with mass transfer, printed in Fig. 4B
Description: Hybridoma production was undertaken by Proteogenix SAS (Schiltigheim, France). Mice were immunized with a fragment of human PLA2R protein (namely NC3, comprising the first five extracellular domains, CysR-FnII-CTLD1-CTLD2-CTLD3). Following fusion of spleen cells, 34 positive supernatants were found when screened by ELISA on the NC3 protein. Ten of the original 34 positive supernatants were taken forward for cloning. Following subcloning, 5 of 10 clones were selected for purification of monoclonal antibody which included antibody 20-2-6.
Kinetics were determined using a ProteOn XPR36 (Bio-Rad, Watford, UK). The P28mer and T28mer peptides were diluted to 200 μg/ml in 10 mM sodium acetate, pH 4.5, and immobilized on a ProteOn GLC sensor chip using standard amine coupling chemistry. […] Moab 20-2-6 was diluted to 25, 20, 15, 10, 5 nM in HEPES-T and injected for 120 s at 70 μl/min. The injection was stopped and dissociation phase measured for 800s. Buffer only and a blank immobilized lanes were used as controls and subtracted. The GLC sensor was regenerated in 10 mM NaOH with two successive injections. Kinetics were determined by fitting to a Langmuir 1:1 interaction model.

[4] = Circular dichroism of the epitope peptides; assay type: physicochemical; conditions: 0.5 mg/ml; for turn content / unordered content / α-helix content / β-sheet content: CD far-UV 190–260 nm, milliQ water, 0.05-cm path, average of 10 accumulations, BeStSel
Procedure: Lyophilized peptides were reconstituted in milliQ water to a concentration of 2.5 mg/ml and diluted to 0.5 mg/ml. CD Far-UV (190–260 nm) spectra were recorded using a Jasco-810 spectropolarimeter. Measurements were taken every 0.2 nm in a 0.05-cm path length cell. Spectra were corrected for buffer absorbance and represent an average of 10 accumulations. Spectra were recorded in millidegrees and converted to mean residue ellipticities using the following equation deltaE = mdeg x (0.1 x mrw)/path x conc_mg/ml x 3298 (where P28mer mrw = 109.5, T28mer mrw = 107.9). Estimation of secondary structure content was then performed using BeStSel software program.

Moab 20-2-6 [5] = assay: Slot blotting of peptides with Moab 20-2-6; assay type: binding, mouse; conditions: non-reducing, 1 μg peptide, antibody 1:5000
Procedure: as §2
(§3) Fig.10 – Specificity of Moab 20-2-6 to P28mer and T28mer.
(§4) Slot blot analysis of unrelated mouse monoclonal
(§5) Moab anti-Transferrin secondary only control […]

[6] = test system: sera from IgA Nephropathy (IgAN) patients; assay: Slot blotting with IgA Nephropathy sera; assay type: binding, human; conditions: slot blot, non-reducing; 1 μg peptide; pool of 5 sera, 1:100
Procedure: as §2
(§6) Fig.6 - Slot blot analysis of sera from IgAN and
(§7) Hu anti-IgAN Hu anti-ANCA Ponceau
(§8) CysR P28sc CysR P28sc CysR P28sc […]

[7] = test system: unrelated mouse monoclonal raised against transferrin receptor; assay: Slot blotting of peptides with unrelated mouse monoclonal; assay type: binding; conditions: slot blot, non-reducing; 1 μg peptide; antibody 1:5000
Procedure: as §2, §3, §4, §5

[8] = test system: anti-THSD7A positive sera; assay: Slot blotting with anti-THSD7A positive sera; assay type: binding, human; conditions: for binding of anti-THSD7A positive sera (slot blot): non-denaturing, 1 μg protein/peptide, sera 1:100, Fig. 2D
Procedure: as §2

[9] = test system: affinity purified antibodies from PLA2R positive sera against PLA2R antigen; assay: BLI of affinity purified anti-PLA2R (against PLA2R antigen); assay type: binding, human; conditions: immobilized peptide, antibodies eluted from PLA2R antigen beads (positive control)
Procedure: as §1

[10] = test system: PLA2R autoantibodies in anti-PLA2R positive MN patient sera; assay: BLI off-rate of MN patient sera, anti-PLA2R positive sera on immobilized peptides; assay type: binding, human; conditions: Octet Red, peptide immobilized on AR2G sensor, sera 1:100 in HEPES-T sera (10 mM HEPES, 150 mM NaCl, 0.05% Tween-20, 0.5% control sera), association 450s, dissociation 1200s, Hill fit, ten anti-PLA2R positive sera
Procedure: (§9) BLI experiments were conducted using an Octet Red (ForteBio, Nottingham, UK). P28mer and T28mer were diluted to 200 μg/ml in 10 mM sodium acetate, pH 4.5, and immobilized on an Octet AR2G sensor (ligand densities of 1.2 nm and 1.4 nm respectively). Patient sera were diluted 1:100 in HEPES-T sera (10 mM HEPES, 150 mM NaCl, 0.05% Tween-20 and 0.5% of a pool of human control sera). Three control normal sera were incorporated in the running buffer in order to provide the baseline binding (i.e. normalize the binding due to any spurious interaction) and allowing quantification of binding above this background. […] Sensors were incubated in MN sera for 450s (association phase) followed by HEPES-T sera for 1200s (dissociation phase). Regeneration was performed in 10 mM NaOH with three successive incubations. The peptide immobilized sensors responses to MN patient sera were calibrated against non-specific binding of each sensor to the HEPES-T sera buffer. The data were fitted to a Hill-1 plot with the inverse k value equivalent to the off rates (koff). Statistical analysis was performed using two way ANOVA multiple comparison or paired t-test as stated in the figure legends. p values of <0.05 were considered significant.

[11] = test system: sera from ANCA vasculitis patients; assay: Slot blotting with ANCA vasculitis sera; assay type: binding, human; conditions: slot blot, non-reducing; 1 μg peptide; pool of 5 sera, 1:100
Procedure: as §2, §6, §7, §8

[12] = test system: THSD7A autoantibodies in anti-THSD7A positive MN patient sera; assay: BLI off-rate of MN patient sera, anti-THSD7A positive sera on immobilized peptides; assay type: binding, human; conditions: for Koff (dissociation rate): BLI, Octet Red, peptide immobilized on AR2G sensor, sera 1:100 in HEPES-T sera (10 mM HEPES, 150 mM NaCl, 0.05% Tween-20, 0.5% control sera), association 450s, dissociation 1200s, Hill fit, ten anti-THSD7A positive sera
Procedure: as §9

binding of affinity purified anti-T28mer [1]	binding of affinity purified anti-P28mer [2]	Kd (Moab 20-2-6 [3]) [nM]	reactivity of unrelated mouse monoclonal to peptide [7]	Substance	binding of anti-PLA2R positive sera (slot blot) (anti-PLA2R positive sera)	turn content [4] [%]	unordered content [4] [%]	α-helix content [4] [%]	β-sheet content [4] [%]	reactivity of Moab 20-2-6 to peptide (slot blot) (Moab 20-2-6 [5])	binding of IgA Nephropathy sera [6]	binding of anti-THSD7A positive sera (slot blot) [8]	binding of affinity purified PLA2R autoantibodies [9]	Koff (dissociation rate) [10] [s⁻¹]	binding of ANCA vasculitis sera [11]	Koff (dissociation rate) [12] [s⁻¹]	negative peak in CD spectrum ([4]; CD far-UV)	number of anti-THSD7A sera recognizing the peptide ([8]; native blotting, ten anti-THSD7A sera tested)	preference of sera THSD7A autoantibodies between peptides (by dissociation rates) ([12]; T28mer vs P28mer, Fig. 3B **** p value < 0.001 (two-way ANOVA))
bind to both epitope peptides	bind to both epitope peptides	0.0887	no reactivity	P28mer: known major PLA2R CysR epitope peptide, aa38-65, synthesized by ProImmune	reacted with both P28mer and T28mer	21.3	45.2	12.1	21.3	reactivity	no binding	reacted with both P28mer and T28mer	bind to both epitope peptides	0.0028	no binding	0.0068			
bind to both epitope peptides	bind to both epitope peptides	0.101	no reactivity	T28mer: THSD7A epitope peptide, aa75-102, located in the TSR1 domain, synthesized by ProImmune (GPGGIQTRAVWCAHVEGWTTLHTNCKQA; UniProt Q9UPZ6 75-102, looked up, fragment)	reacted with both P28mer and T28mer	15	46.7	6.5	31.8	reactivity	no binding	reacted with both P28mer and T28mer	bind to both epitope peptides	0.0009	no binding	0.0013	around 205 nm	All ten anti-THSD7A sera tested recognized the T28mer peptide	preferentially bind to the T28mer over P28mer
